Measurements: patent US7671054B1, “Reverse-turn mimetics and method relating thereto” (Choongwae Pharma Corporation, priority 2001, dated 2010)
Read-outs that look alike come from different tables or passages of the source.

Legend:
SW480 cells = assay: Growth inhibition assay (MTS); assay type: cell-based; conditions: Homo sapiens, SW480 cells, 48 hours treatment, MTS, read-out: Growth Inhibition (GI50, uM) SW480
Experimental: (§1) SW480 or HCT116 cells were placed into 96 well microplate (10^4cells/well) and incubated for 24 hours at 37° C. 20 μl of [3-(4,5-dimethylthiazol-2-yl)-5-(3-carboxyphenyl)-2-(4-sulfophenyl)-2H-tetrazolium, inner salt](MTS) solution (Promega) was added into each well and the absorbance after 2 hour incubation at 37° C. (negative control) was read. And then, the cells were treated with TCF4 compound at various concentrations for 48 hours. 20 μl of MTS solution (Promega) was added into each well and incubated for 2 hour at 37° C. Cell viability was measured by reading the absorbance at 490 nm using a microplate reader (Molecular device) and cytotoxicity of a compound at each concentration was calculated.
as §1, with “a test” for “TCF4”

HCT116 cells = assay: Growth inhibition assay (MTS); assay type: cell-based; conditions: Homo sapiens, HCT116 cells, 48 hours treatment, MTS, read-out: Growth Inhibition (GI50, uM) HCT116
Experimental: as §1
as §1, with “a test” for “TCF4”

Structure (SMILES) | GI50 (SW480 cells; SW480, 48 h, Table 5) [µM] | GI50 (HCT116 cells; HCT-116, 48 h, Table 5) [µM] | further results
C=CC[C@@H]1CC(=O)N2[C@H](CN(Cc3cccc(OC)c3OC)C(=O)[C@@H]2Cc2ccc(O)cc2)N1C(=O)NCc1ccccc1 |  |  | GI50 (SW480 cells; SW480, 48 h, Example 21): 4.1 µM; GI50 (HCT116 cells; HCT-116, 48 h, Example 21): 4.91 µM
C=CC[C@@H]1CC(=O)N2[C@H](CN(Cc3cccc4cn[nH]c34)C(=O)[C@@H]2Cc2ccc(O)cc2)N1C(=O)NCc1ccccc1 |  |  | GI50 (SW480 cells; SW480, 48 h, Example 21): 2 µM; GI50 (HCT116 cells; HCT-116, 48 h, Example 21): 2.3 µM
C=CC[C@@H]1CC(=O)N2[C@H](CN(Cc3cccc4scnc34)C(=O)[C@@H]2Cc2ccc(O)cc2)N1C(=O)NCc1ccccc1 |  |  | GI50 (SW480 cells; SW480, 48 h, Example 21): 1.2 µM; GI50 (HCT116 cells; HCT-116, 48 h, Example 21): 1.4 µM
COc1ccccc1CN1C[C@H]2N(C(=O)CN(C)N2C(=O)NCc2ccccc2)[C@@H](Cc2ccc(O)cc2)C1=O [Compound 2] | 2.58 | 2.23 | 
CN1CC(=O)N2[C@@H](Cc3ccc(O)cc3)C(=O)N(Cc3ccc(Cl)cc3)C[C@@H]2N1C(=O)NCc1ccccc1 [Compound 3] | 2.73 | 2.39 | 
CN1CC(=O)N2[C@@H](Cc3ccc(O)cc3)C(=O)N(Cc3ccc(Cl)c(Cl)c3)C[C@@H]2N1C(=O)NCc1ccccc1 [Compound 4] | 1.99 | 1.91 | 
CN1CC(=O)N2[C@@H](Cc3ccc(O)cc3)C(=O)N(Cc3ccccc3OC(F)(F)F)C[C@@H]2N1C(=O)NCc1ccccc1 [Compound 5] | 2.32 | 2.06 | 
CN1CC(=O)N2[C@@H](Cc3ccc(O)cc3)C(=O)N(Cc3ccccc3SC(F)(F)F)C[C@@H]2N1C(=O)NCc1ccccc1 [Compound 6] | 3.96 | 3.91 | 
CN1CC(=O)N2[C@@H](Cc3ccc(O)cc3)C(=O)N(Cc3ccccc3C(F)(F)F)C[C@@H]2N1C(=O)NCc1ccccc1 [Compound 7] | 1.22 | 0.73 | 
CN1CC(=O)N2[C@@H](Cc3ccc(O)cc3)C(=O)N(Cc3cccc4cccnc34)C[C@@H]2N1C(=O)NCc1ccccc1 [Compound 8] | < 0.3 | < 0.3 | 
CN1CC(=O)N2[C@@H](Cc3ccc(O)cc3)C(=O)N(Cc3ccc4ccccc4c3)C[C@@H]2N1C(=O)NCc1ccccc1 [Compound 9] | 2.36 | 1.92 | 
CN1CC(=O)N2[C@@H](Cc3ccc(O)cc3)C(=O)N(Cc3ccccc3C(F)(F)F)C[C@@H]2N1C(=O)NCc1ccccc1 [Compound 10] |  |  | GI50 (SW480 cells; Table 5): 2.34 µM; GI50 (HCT116 cells; HCT-116, Table 5): 1.66 µM
CN1CC(=O)N2[C@@H](Cc3ccc(O)cc3)C(=O)N(Cc3cccc(F)c3)C[C@@H]2N1C(=O)NCc1ccccc1 [Compound 11] |  |  | GI50 (SW480 cells; Table 5): 1.97 µM; GI50 (HCT116 cells; HCT-116, Table 5): 1.3 µM
CN1CC(=O)N2[C@@H](Cc3ccc(O)cc3)C(=O)N(Cc3ccc(F)cc3)C[C@@H]2N1C(=O)NCc1ccccc1 [Compound 12] |  |  | GI50 (SW480 cells; Table 5): 2.54 µM; GI50 (HCT116 cells; HCT-116, Table 5): 1.48 µM
CN1CC(=O)N2[C@@H](Cc3ccc(O)cc3)C(=O)N(Cc3cccc(C(F)(F)F)c3)C[C@@H]2N1C(=O)NCc1ccccc1 [Compound 14] | 2.7 | 2.1 | 
CN1CC(=O)N2C(CN(Cc3ccccc3Cl)C(=O)[C@@H]2Cc2ccc(O)cc2)N1C(=O)NCc1ccccc1 (stereo partly shown) [Compound 15] | 1.68 | 1.34 | 
CN1CC(=O)N2[C@@H](Cc3ccc(O)cc3)C(=O)N(Cc3cc(F)c(F)c(F)c3)C[C@@H]2N1C(=O)NCc1ccccc1 [Compound 17] | 1.12 | 0.74 | 
CN1CC(=O)N2C(CN(Cc3ccc(Cl)cc3Cl)C(=O)[C@@H]2Cc2ccc(O)cc2)N1C(=O)NCc1ccccc1 (stereo partly shown) [Compound 18] | 4.63 | 3.52 | 
C[C@H](c1ccccc1)N1C[C@H]2N(C(=O)CN(C)N2C(=O)NCc2ccccc2)[C@@H](Cc2ccc(O)cc2)C1=O [Compound 19] | 2.66 | 1.17 | 
COc1ccc(CN2CC3N(C(=O)CN(C)N3C(=O)NCc3ccccc3)[C@@H](Cc3ccc(O)cc3)C2=O)cc1 (stereo partly shown) [Compound 20] | 5.02 | 2.75 | 
COc1cccc(CN2CC3N(C(=O)CN(C)N3C(=O)NCc3ccccc3)[C@@H](Cc3ccc(O)cc3)C2=O)c1OC (stereo partly shown) [Compound 21] | 5.25 | 1.67 | 
CN(C)c1ccccc1CN1C[C@H]2N(C(=O)CN(C)N2C(=O)NCc2ccccc2)[C@@H](Cc2ccc(O)cc2)C1=O [Compound 22] | 6.58 | 3.26 | 
CN1CC(=O)N2[C@@H](Cc3ccc(O)cc3)C(=O)N(Cc3ccc(F)cc3C(F)(F)F)C[C@@H]2N1C(=O)NCc1ccccc1 [Compound 23] | 3.9 | 25.4 | 

Structure (SMILES) | GI50 (SW480 cells; SW480, 48 h, Table 5) [µM] | GI50 (HCT116 cells; HCT-116, 48 h, Table 5) [µM] | further results
CN(C)c1cc(Cl)ccc1CN1C[C@H]2N(C(=O)CN(C)N2C(=O)NCc2ccccc2)[C@@H](Cc2ccc(O)cc2)C1=O [Compound 24] | 13.8 | 1.67 | 
CCN(C)c1cccc(CN2C[C@H]3N(C(=O)CN(C)N3C(=O)NCc3ccccc3)[C@@H](Cc3ccc(O)cc3)C2=O)c1 [Compound 25] | 24.5 | 1.81 | 
CCN(CC)c1cccc(CN2C[C@H]3N(C(=O)CN(C)N3C(=O)NCc3ccccc3)[C@@H](Cc3ccc(O)cc3)C2=O)c1 [Compound 26] | 23.9 | 3.06 | 
CN(C)c1cc(F)ccc1CN1C[C@H]2N(C(=O)CN(C)N2C(=O)NCc2ccccc2)[C@@H](Cc2ccc(O)cc2)C1=O [Compound 27] | 11.7 | 1.13 | 
Cc1cc(C)c(N(C)C)c(CN2C[C@H]3N(C(=O)CN(C)N3C(=O)NCc3ccccc3)[C@@H](Cc3ccc(O)cc3)C2=O)c1 [Compound 28] | 3.57 | 5.47 | 
Cc1ccc(N(C)C)c(CN2C[C@H]3N(C(=O)CN(C)N3C(=O)NCc3ccccc3)[C@@H](Cc3ccc(O)cc3)C2=O)c1 [Compound 29] | 16 | 7.93 | 
CC(C)N(C)c1ccccc1CN1C[C@H]2N(C(=O)CN(C)N2C(=O)NCc2ccccc2)[C@@H](Cc2ccc(O)cc2)C1=O [Compound 30] | 14.1 | 5.4 | 
CN(C1CC1)C1CC=CC=C1CN1C[C@H]2N(C(=O)CN(C)N2C(=O)NCc2ccccc2)[C@@H](Cc2ccc(O)cc2)C1=O (stereo partly shown) [Compound 31] | 8.1 ± 0.7 | 5 ± 1 | 
CC(C)N(C)c1cccc(Cl)c1CN1C[C@H]2N(C(=O)CN(C)N2C(=O)NCc2ccccc2)[C@@H](Cc2ccc(O)cc2)C1=O [Compound 32] | 47.2 ± 12.1 | 16.9 ± 1.9 | 
CC(C)N(C)c1cc(CN2C[C@H]3N(C(=O)CN(C)N3C(=O)NCc3ccccc3)[C@@H](Cc3ccc(O)cc3)C2=O)ccc1Cl [Compound 33] | > 50 | 28.6 ± 2 | 
CCCN(C)c1cccc(CN2C[C@H]3N(C(=O)CN(C)N3C(=O)NCc3ccccc3)[C@@H](Cc3ccc(O)cc3)C2=O)c1 [Compound 34] | 13.8 ± 2.4 | 6.4 ± 1.3 | 
CN1CC(=O)N2[C@@H](Cc3ccc(O)cc3)C(=O)N(Cc3cccc4c3cnn4C)C[C@@H]2N1C(=O)NCc1ccccc1 [Compound 35] | 4.7 ± 0.5 | 5 ± 0.7 | 
CN(c1cccc(CN2C[C@H]3N(C(=O)CN(C)N3C(=O)NCc3ccccc3)[C@@H](Cc3ccc(O)cc3)C2=O)c1)C1CC1 [Compound 36] | 21.9 ± 2.3 | 12.7 ± 1.3 | 
C[C@H](c1ccc(F)c(N(C)C)c1)N1C[C@H]2N(C(=O)CN(C)N2C(=O)NCc2ccccc2)[C@@H](Cc2ccc(O)cc2)C1=O [Compound 37] | 10.4 ± 0.8 | 9.2 ± 0.9 | 
C[C@H](c1cccc(N(C)C)c1)N1C[C@H]2N(C(=O)CN(C)N2C(=O)NCc2ccccc2)[C@@H](Cc2ccc(O)cc2)C1=O [Compound 38] | 8.5 | 6.9 | 
CC(C)N(C)c1cc([C@@H](C)N2C[C@H]3N(C(=O)CN(C)N3C(=O)NCc3ccccc3)[C@@H](Cc3ccc(O)cc3)C2=O)ccc1F [Compound 39] | 22.8 ± 6.5 | 19.7 ± 3.3 | 
CN1CC(=O)N2[C@@H](Cc3ccc(O)cc3)C(=O)N(Cc3cccc(N4CCCC4)c3)C[C@@H]2N1C(=O)NCc1ccccc1 [Compound 40] | 6.4 ± 0.5 | 5.8 ± 0.4 | 
CCN(CC)c1cc(F)ccc1[C@H](C)N1C[C@H]2N(C(=O)CN(C)N2C(=O)NCc2ccccc2)[C@@H](Cc2ccc(O)cc2)C1=O [Compound 41] | 34.4 ± 9.6 | 14.7 ± 2.6 | 
CC(C)N(C)c1cccc([C@@H](C)N2C[C@H]3N(C(=O)CN(C)N3C(=O)NCc3ccccc3)[C@@H](Cc3ccc(O)cc3)C2=O)c1 [Compound 42] | 24.7 | 10.8 | 
CN(C)c1ccc(C[C@H]2C(=O)N(Cc3cccc4ccccc34)C[C@H]3N2C(=O)CN(C)N3C(=O)NCc2ccccc2)cc1 [Compound 43] | > 50 | 39.1 | 
C#CCN1CC(=O)N2[C@@H](Cc3ccc(O)cc3)C(=O)N(Cc3cc(F)c(F)cc3N(C)C)C[C@@H]2N1C(=O)NCc1ccccc1 [Compound 81] |  | 1.8 ± 0.1 | 
C=CCN1CC(=O)N2[C@@H](Cc3ccc(O)cc3)C(=O)N(Cc3cccc(N4CCCC4=O)c3)C[C@@H]2N1C(=O)NCc1ccccc1 [Compound 123] |  | 1.7 ± 0.3 | 
